Test results taken from patent publication US10830746B2, “Quantitation of Tamoxifen and metabolites thereof by mass spectrometry” (QUEST DIAGNOSTICS INVESTMENTS INCORPORATED, priority 2014, dated 2020).

experiment: Quantitation of tamoxifen and its metabolites in patient serum by LC-MS/MS; details: expected values in serum
Protocol: In the following procedure, tamoxifen and its metabolites are extracted from serum. The serum is added to a filter plate, and then mixed with acetonitrile/IS, which then forms a precipitate. The mixture is then placed on a positive pressure manifold, and the organic fraction is passed through to a collection plate. The plate is lidded, and then placed on the Cohesive system for injection onto MS/MS. The MS is in APCI-positive mode. The quantitation is based upon unique parent-product transitions. Those analytes with similar transitions were separated chromatographically.
A 12-point calibration is used for each analyte. Initially, only one standard is made (Std-12), with a series of dilutions performed to generate the remaining standards. The standard (#12) is to be removed from the −70° C. freezer and thawed. While thawing, label twelve 12×75 mm tubes.
Add 3.0 mL of std-12 to tube 12. From this standard, you will follow the table below to create the standard curve. A standard curve is to be generated with each assay. Place the initial standard back in the −60 to −90° C. freezer.
A Thermo LC/MS/MS system containing the following modules was used for this assay:
The extraction is a protein precipitation, followed by filtration. Analysis and quantitation is then performed by LC/MS/MS.
Norendoxifen is extracted from serum using protein precipitation, followed by filtration. Analysis and quantitation is then performed by LC/MS/MS.

Compound	Reference Ranges [ng/mL]
Tamoxifen	12.54 to 233.07

same assay, conditions: human, in vivo

Compound	Reference Ranges [ng/mL]
4-Hydroxy Tamoxifen	0.24 to 5.05
CC/C(=C(\c1ccccc1)c1ccc(OCCN(C)C)cc1)c1ccc(O)cc1 [4′-Hydroxy Tamoxifen]	0.4 to 6.33
CC/C(=C(\c1ccccc1)c1ccc(OCCNC)cc1)c1ccccc1 [N-Desmethyl Tamoxifen]	2.59 to 373.96
CC/C(=C(\c1ccc(O)cc1)c1ccc(OCCNC)cc1)c1ccccc1 [N-Desmethyl-4-Hydroxy Tamoxifen]	0.93 to 43.19
CCC(=C(c1ccccc1)c1ccc(OCCNC)cc1)c1ccc(O)cc1 [N-Desmethyl-4′-Hydroxy Tamoxifen]	1.17 to 19.95
